Columns and labels:
Test in all cases: Test D controlled growth environment herbicide test, pre- and postemergence
Assay type in all cases: in vivo
[1] = test system: Russian thistle (Salsola kali)
Procedure, shortened: (§1)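 Rating is visual, 0–100 scale (100 = complete control), made against untreated plants 14–21 d after treatment in controlled growth conditions. Postemergence sprays went onto 1- to 4-leaf plants in peat medium; preemergence sprays onto silt loam after sowing; formulation included a surfactant.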

[2] = test system: blackgrass (Alopecurus myosuroides)
Procedure, shortened: as §1

[3] = test system: bromegrass, downy (downy bromegrass, Bromus tectorum)
Procedure, shortened: as §1

[4] = test system: chickweed (common chickweed, Stellaria media)
Procedure, shortened: as §1

[5] = test system: deadnettle (henbit deadnettle, Lamium amplexicaule)
Procedure, shortened: as §1

[6] = test system: foxtail, green (green foxtail, Setaria viridis)
Procedure, shortened: as §1

[7] = test system: mustard, wild (wild mustard, Sinapis arvensis)
Procedure, shortened: as §1

[8] = test system: oat, wild (wild oat, Avena fatua)
Procedure, shortened: as §1

[9] = test system: oilseed rape (Brassica napus)
Procedure, shortened: as §1

[10] = test system: ryegrass, Italian (Italian ryegrass, Lolium multiflorum)
Procedure, shortened: as §1

[11] = test system: speedwell (bird's-eye speedwell, Veronica persica)
Procedure, shortened: as §1

[12] = test system: wheat, spring (spring wheat, Triticum aestivum)
Procedure, shortened: as §1

[13] = test system: wheat, winter (winter wheat, Triticum aestivum)
Procedure, shortened: as §1

[14] = Postemergence, 31 g ai/ha, scale 0 to 100 (0 no effect, 100 complete control)
[15] = Postemergence, 125 g ai/ha, visual rating on scale 0 (no effect) to 100 (complete control), 14 to 21 d
[16] = Postemergence, 250 g ai/ha, scale 0 to 100 (0 no effect, 100 complete control)
[17] = Preemergence, 62 g ai/ha, scale 0 to 100 (0 no effect, 100 complete control)
[18] = Preemergence, 125 g ai/ha, scale 0 to 100 (0 no effect, 100 complete control)
[19] = Preemergence, 250 g ai/ha, scale 0 to 100, 0 no effect, 100 complete control
[20] = postemergence, 62 g ai/ha, scale 0 to 100, 0 no effect, 100 complete control

Cc1ccc2ccccc2c1-c1c(OC(=O)OC(C)C)c(C)nn(C)c1=O [Compound 72]
Russian Thistle plant response rating [1, 14]: 70
Plant response rating, Russian Thistle [1, 15]: 80
Plant response rating, Russian Thistle [1, 16]: 85
Plant response rating (scale of 0 to 100), Russian Thistle ([1]; Preemergence, 31 g ai/ha): 0
Plant response rating, Russian Thistle [1, 17]: 10
Plant response rating, Russian Thistle [1, 18]: 15
Plant response rating, Russian Thistle [1, 19]: 25
Plant response rating, Russian Thistle [1, 20]: 75
Blackgrass plant response rating [2, 14]: 40
Plant response rating, Blackgrass [2, 15]: 75
Plant response rating, Blackgrass [2, 16]: 80
Plant response rating (scale of 0 to 100), Blackgrass ([2]; Preemergence, 31 g ai/ha): 15
Plant response rating, Blackgrass [2, 17]: 30
Plant response rating, Blackgrass [2, 18]: 55
Plant response rating, Blackgrass [2, 19]: 75
Plant response rating, Blackgrass [2, 20]: 70
Bromegrass, Downy plant response rating [3, 14]: 45
Plant response rating, Bromegrass, Downy [3, 15]: 65
Plant response rating, Bromegrass, Downy [3, 16]: 75
Plant response rating (scale of 0 to 100), Bromegrass, Downy ([3]; Preemergence, 31 g ai/ha): 0
Plant response rating, Bromegrass, Downy [3, 17]: 0
Plant response rating, Bromegrass, Downy [3, 18]: 35
Plant response rating, Bromegrass, Downy [3, 19]: 60
Plant response rating, Bromegrass, Downy [3, 20]: 55
Chickweed plant response rating [4, 14]: 98
Plant response rating, Chickweed [4, 15]: 100
Plant response rating, Chickweed [4, 16]: 100
Plant response rating (scale of 0 to 100), Chickweed ([4]; Preemergence, 31 g ai/ha): 70
Plant response rating, Chickweed [4, 17]: 100
Plant response rating, Chickweed [4, 18]: 100
Plant response rating, Chickweed [4, 19]: 100
Plant response rating, Chickweed [4, 20]: 100
Deadnettle plant response rating [5, 14]: 85
Plant response rating, Deadnettle [5, 15]: 100
Plant response rating, Deadnettle [5, 16]: 100
Plant response rating (scale of 0 to 100), Deadnettle ([5]; Preemergence, 31 g ai/ha): 5
Plant response rating, Deadnettle [5, 17]: 15
Plant response rating, Deadnettle [5, 18]: 65
Plant response rating, Deadnettle [5, 19]: 70
Plant response rating, Deadnettle [5, 20]: 90
Foxtail, Green plant response rating [6, 14]: 60
Plant response rating, Foxtail, Green [6, 15]: 70
Plant response rating, Foxtail, Green [6, 16]: 75
Plant response rating (scale of 0 to 100), Foxtail, Green ([6]; Preemergence, 31 g ai/ha): 20
Plant response rating, Foxtail, Green [6, 17]: 30
Plant response rating, Foxtail, Green [6, 18]: 60
Plant response rating, Foxtail, Green [6, 19]: 85
Plant response rating, Foxtail, Green [6, 20]: 65
Mustard, Wild plant response rating [7, 14]: 85
Plant response rating, Mustard, Wild [7, 15]: 100
Plant response rating, Mustard, Wild [7, 16]: 100
Plant response rating (scale of 0 to 100), Mustard, Wild ([7]; Preemergence, 31 g ai/ha): 0
Plant response rating, Mustard, Wild [7, 17]: 25
Plant response rating, Mustard, Wild [7, 18]: 60
Plant response rating, Mustard, Wild [7, 19]: 80
Plant response rating, Mustard, Wild [7, 20]: 100
Oat, Wild plant response rating [8, 14]: 85
Plant response rating, Oat, Wild [8, 15]: 95
Plant response rating, Oat, Wild [8, 16]: 98
Plant response rating (scale of 0 to 100), Oat, Wild ([8]; Preemergence, 31 g ai/ha): 65
Plant response rating, Oat, Wild [8, 17]: 75
Plant response rating, Oat, Wild [8, 18]: 85
Plant response rating, Oat, Wild [8, 19]: 95
Plant response rating, Oat, Wild [8, 20]: 85
Oilseed Rape plant response rating [9, 14]: 65
Plant response rating, Oilseed Rape [9, 15]: 80
Plant response rating, Oilseed Rape [9, 16]: 90
Plant response rating (scale of 0 to 100), Oilseed Rape ([9]; Preemergence, 31 g ai/ha): 5
Plant response rating, Oilseed Rape [9, 17]: 15
Plant response rating, Oilseed Rape [9, 18]: 15
Plant response rating, Oilseed Rape [9, 19]: 25
Plant response rating, Oilseed Rape [9, 20]: 70
Ryegrass, Italian plant response rating [10, 14]: 95
Plant response rating, Ryegrass, Italian [10, 15]: 95
Plant response rating, Ryegrass, Italian [10, 16]: 100
Plant response rating (scale of 0 to 100), Ryegrass, Italian ([10]; Preemergence, 31 g ai/ha): 55
Plant response rating, Ryegrass, Italian [10, 17]: 75
Plant response rating, Ryegrass, Italian [10, 18]: 100
Plant response rating, Ryegrass, Italian [10, 19]: 90
Plant response rating, Ryegrass, Italian [10, 20]: 95
Speedwell plant response rating [11, 14]: 75
Plant response rating, Speedwell [11, 15]: 100
Plant response rating, Speedwell [11, 16]: 80
Plant response rating (scale of 0 to 100), Speedwell ([11]; Preemergence, 31 g ai/ha): 5
Plant response rating, Speedwell [11, 17]: 70
Plant response rating, Speedwell [11, 19]: 100
Plant response rating, Speedwell [11, 20]: 75
Wheat, Spring plant response rating [12, 14]: 40
Plant response rating, Wheat, Spring [12, 15]: 60
Plant response rating, Wheat, Spring [12, 16]: 70
Plant response rating (scale of 0 to 100), Wheat, Spring ([12]; Preemergence, 31 g ai/ha): 0
Plant response rating, Wheat, Spring [12, 17]: 35
Plant response rating, Wheat, Spring [12, 18]: 65
Plant response rating, Wheat, Spring [12, 19]: 80
Plant response rating, Wheat, Spring [12, 20]: 50
Wheat, Winter plant response rating [13, 14]: 25
Plant response rating, Wheat, Winter [13, 15]: 50
Plant response rating, Wheat, Winter [13, 16]: 60
Plant response rating (scale of 0 to 100), Wheat, Winter ([13]; Preemergence, 31 g ai/ha): 5
Plant response rating, Wheat, Winter [13, 17]: 10
Plant response rating, Wheat, Winter [13, 18]: 25
Plant response rating, Wheat, Winter [13, 19]: 45
Plant response rating, Wheat, Winter [13, 20]: 35
